Assay results taken from ChEMBL document CHEMBL5579883, “Discovery of Novel Neo-Clerodane Derivatives as Potent Dual-Functional Antiosteoporosis Agents through Targeting Peroxisome Proliferator-Activated Receptor-γ” (J Med Chem, 2024).
Activity calls are given as the source filed them. The rule behind the calls is not given here.

Key:
Mus musculus [1] = assay: Anti-osteoporosis activity in OVX-induced osteoporosis C57BL/6J mouse model assessed as reduction in PINP level at 10 mg/kg, IG administered once a day for 4 weeks by ELISA method; format: functional, organism-based
Mus musculus [2] = assay: Anti-osteoporosis activity in OVX-induced osteoporosis C57BL/6J mouse model assessed as prevention of bone volume/[…] volume decrease in femur at 10 mg/kg, IG administered once a day for 4 weeks by micro-CT scanning analysis; format: functional, organism-based
Mus musculus [3] = assay: Anti-osteoporosis activity in OVX-induced osteoporosis C57BL/6J mouse model assessed as reduction in ACP5 level at 10 mg/kg, IG administered once a day for 4 weeks by ELISA method; format: functional, organism-based
Mus musculus [4] = assay: Anti-osteoporosis activity in C57BL/6J mouse model assessed as downregulation of OVX-induced TNF-alpha accumulation at 10 mg/kg, IG administered once a day for 4 weeks by ELISA method; format: functional, organism-based
Mus musculus [5] = assay: Anti-osteoporosis activity in OVX-induced osteoporosis C57BL/6J mouse model assessed as prevention of increase in bone surface area/bone volume in femur at 10 mg/kg, IG administered once a day for 4 weeks by micro-CT scanning analysis; format: functional, organism-based
BMDM [6] = assay: Inhibition of osteoclastogenesis in C57BL/6J mouse Bone marrow macrophage cells assessed as inhibition of RANKL-stimulated osteoclast formation measured after 6 days by tartrate-resistant acid phosphatase (TRAP) staining assay; details: 144 h
Mus musculus [7] = assay: Anti-osteoporosis activity in OVX-induced osteoporosis C57BL/6J mouse model assessed as reduction in osteocalcin level at 10 mg/kg, IG administered once a day for 4 weeks by ELISA method; format: functional, organism-based
Mus musculus [8] = assay: Anti-osteoporosis activity in OVX-induced osteoporosis C57BL/6J mouse model assessed as reduction in CTX-1 level at 10 mg/kg, IG administered once a day for 4 weeks by ELISA method; format: functional, organism-based
Mus musculus [9] = assay: Anti-osteoporosis activity in C57BL/6J mouse model assessed as downregulation of OVX-induced IL-6 accumulation at 10 mg/kg, IG administered once a day for 4 weeks by ELISA method; format: functional, organism-based
BMDM [10] = assay: cells; details: Mus musculus, 144 h, read-out: INH
Description: Inhibition of osteoclastogenesis in C57BL/6J mouse Bone marrow macrophage cells assessed as inhibition of RANKL-stimulated osteoclast formation at 10 uM measured after 6 days by tartrate-resistant acid phosphatase (TRAP) staining assay relative to control

Mus musculus [11] = assay: Anti-osteoporosis activity in OVX-induced osteoporosis C57BL/6J mouse model assessed as prevention of trabecular thickness decrease in femur at 10 mg/kg, IG administered once a day for 4 weeks by micro-CT scanning analysis; format: functional, organism-based
Mus musculus [12] = assay: Anti-osteoporosis activity in OVX-induced osteoporosis C57BL/6J mouse model assessed as prevention of trabecular number decrease in femur at 10 mg/kg, IG administered once a day for 4 weeks by micro-CT scanning analysis; format: functional, organism-based
[13] = molecular target: T1, Peroxisome proliferator-activated receptor gamma (Homo sapiens, UniProt P37231); assay: Antagonist activity at PPAR gamma LBD (203 to 476 residues) (unknown origin) expressed in HEK293T cells co-transfected with pCMV-GAL4-PPARgamma-LBD-SV40-Renilla-luciferase assessed as reduction of rosiglitazone induced PPAR-gamma activation incubated for 24 hrs by dural-luciferase reporter assay; format: cell-based
T1 sequence (P37231 whole entry): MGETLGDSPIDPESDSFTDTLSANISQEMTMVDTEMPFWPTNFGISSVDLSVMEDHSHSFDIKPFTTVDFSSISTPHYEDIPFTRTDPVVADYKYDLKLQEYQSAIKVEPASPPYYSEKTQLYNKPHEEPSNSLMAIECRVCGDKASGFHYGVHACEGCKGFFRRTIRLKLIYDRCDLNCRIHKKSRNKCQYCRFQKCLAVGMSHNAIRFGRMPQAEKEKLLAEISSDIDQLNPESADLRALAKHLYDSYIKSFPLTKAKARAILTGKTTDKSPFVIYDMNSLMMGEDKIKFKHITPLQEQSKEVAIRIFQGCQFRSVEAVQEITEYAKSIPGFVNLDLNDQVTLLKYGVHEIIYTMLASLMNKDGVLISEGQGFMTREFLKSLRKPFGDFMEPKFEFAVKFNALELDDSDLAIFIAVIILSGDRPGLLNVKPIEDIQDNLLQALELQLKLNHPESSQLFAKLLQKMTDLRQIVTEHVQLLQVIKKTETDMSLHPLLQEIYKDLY

Mus musculus [14] = assay: Anti-osteoporosis activity in OVX-induced osteoporosis C57BL/6J mouse model assessed as recovery of serum estradiol level at 10 mg/kg, IG administered once a day for 4 weeks by ELISA method; format: functional, organism-based
BMDM [15] = assay: Cytotoxicity against mouse Bone marrow macrophage at 10 uM measured after 72 hrs by MTT assay; format: toxicity, cell-based
Mus musculus [16] = assay: Anti-osteoporosis activity in OVX-induced osteoporosis C57BL/6J mouse model assessed as reduction in RANKL level at 10 mg/kg, IG administered once a day for 4 weeks by ELISA method; format: functional, organism-based
[17] = molecular target: T1, Peroxisome proliferator-activated receptor gamma; assay: Binding affinity to PPAR gamma LBD (203 to 476 residues) (unknown origin) extracted from Escherichia coli BL21 (DE3) cells assessed as dissociation constant in presence of rosiglitazone by Isothermal titration calorimetry method
[18] = molecular target: T1, Peroxisome proliferator-activated receptor gamma; assay: Binding affinity to PPAR gamma LBD (203 to 476 residues) (unknown origin) extracted from Escherichia coli BL21 (DE3) cells assessed as dissociation constant by Isothermal titration calorimetry method
[19] = molecular target: Nuclear receptor corepressor 1 (Homo sapiens) (UniProt O75376); assay: Effect on NCoR recruitment (unknown origin) at 10 uM incubated for 24 hrs by TR-FRET assay
Chain of Nuclear receptor corepressor 1 (Homo sapiens) (O75376 whole entry): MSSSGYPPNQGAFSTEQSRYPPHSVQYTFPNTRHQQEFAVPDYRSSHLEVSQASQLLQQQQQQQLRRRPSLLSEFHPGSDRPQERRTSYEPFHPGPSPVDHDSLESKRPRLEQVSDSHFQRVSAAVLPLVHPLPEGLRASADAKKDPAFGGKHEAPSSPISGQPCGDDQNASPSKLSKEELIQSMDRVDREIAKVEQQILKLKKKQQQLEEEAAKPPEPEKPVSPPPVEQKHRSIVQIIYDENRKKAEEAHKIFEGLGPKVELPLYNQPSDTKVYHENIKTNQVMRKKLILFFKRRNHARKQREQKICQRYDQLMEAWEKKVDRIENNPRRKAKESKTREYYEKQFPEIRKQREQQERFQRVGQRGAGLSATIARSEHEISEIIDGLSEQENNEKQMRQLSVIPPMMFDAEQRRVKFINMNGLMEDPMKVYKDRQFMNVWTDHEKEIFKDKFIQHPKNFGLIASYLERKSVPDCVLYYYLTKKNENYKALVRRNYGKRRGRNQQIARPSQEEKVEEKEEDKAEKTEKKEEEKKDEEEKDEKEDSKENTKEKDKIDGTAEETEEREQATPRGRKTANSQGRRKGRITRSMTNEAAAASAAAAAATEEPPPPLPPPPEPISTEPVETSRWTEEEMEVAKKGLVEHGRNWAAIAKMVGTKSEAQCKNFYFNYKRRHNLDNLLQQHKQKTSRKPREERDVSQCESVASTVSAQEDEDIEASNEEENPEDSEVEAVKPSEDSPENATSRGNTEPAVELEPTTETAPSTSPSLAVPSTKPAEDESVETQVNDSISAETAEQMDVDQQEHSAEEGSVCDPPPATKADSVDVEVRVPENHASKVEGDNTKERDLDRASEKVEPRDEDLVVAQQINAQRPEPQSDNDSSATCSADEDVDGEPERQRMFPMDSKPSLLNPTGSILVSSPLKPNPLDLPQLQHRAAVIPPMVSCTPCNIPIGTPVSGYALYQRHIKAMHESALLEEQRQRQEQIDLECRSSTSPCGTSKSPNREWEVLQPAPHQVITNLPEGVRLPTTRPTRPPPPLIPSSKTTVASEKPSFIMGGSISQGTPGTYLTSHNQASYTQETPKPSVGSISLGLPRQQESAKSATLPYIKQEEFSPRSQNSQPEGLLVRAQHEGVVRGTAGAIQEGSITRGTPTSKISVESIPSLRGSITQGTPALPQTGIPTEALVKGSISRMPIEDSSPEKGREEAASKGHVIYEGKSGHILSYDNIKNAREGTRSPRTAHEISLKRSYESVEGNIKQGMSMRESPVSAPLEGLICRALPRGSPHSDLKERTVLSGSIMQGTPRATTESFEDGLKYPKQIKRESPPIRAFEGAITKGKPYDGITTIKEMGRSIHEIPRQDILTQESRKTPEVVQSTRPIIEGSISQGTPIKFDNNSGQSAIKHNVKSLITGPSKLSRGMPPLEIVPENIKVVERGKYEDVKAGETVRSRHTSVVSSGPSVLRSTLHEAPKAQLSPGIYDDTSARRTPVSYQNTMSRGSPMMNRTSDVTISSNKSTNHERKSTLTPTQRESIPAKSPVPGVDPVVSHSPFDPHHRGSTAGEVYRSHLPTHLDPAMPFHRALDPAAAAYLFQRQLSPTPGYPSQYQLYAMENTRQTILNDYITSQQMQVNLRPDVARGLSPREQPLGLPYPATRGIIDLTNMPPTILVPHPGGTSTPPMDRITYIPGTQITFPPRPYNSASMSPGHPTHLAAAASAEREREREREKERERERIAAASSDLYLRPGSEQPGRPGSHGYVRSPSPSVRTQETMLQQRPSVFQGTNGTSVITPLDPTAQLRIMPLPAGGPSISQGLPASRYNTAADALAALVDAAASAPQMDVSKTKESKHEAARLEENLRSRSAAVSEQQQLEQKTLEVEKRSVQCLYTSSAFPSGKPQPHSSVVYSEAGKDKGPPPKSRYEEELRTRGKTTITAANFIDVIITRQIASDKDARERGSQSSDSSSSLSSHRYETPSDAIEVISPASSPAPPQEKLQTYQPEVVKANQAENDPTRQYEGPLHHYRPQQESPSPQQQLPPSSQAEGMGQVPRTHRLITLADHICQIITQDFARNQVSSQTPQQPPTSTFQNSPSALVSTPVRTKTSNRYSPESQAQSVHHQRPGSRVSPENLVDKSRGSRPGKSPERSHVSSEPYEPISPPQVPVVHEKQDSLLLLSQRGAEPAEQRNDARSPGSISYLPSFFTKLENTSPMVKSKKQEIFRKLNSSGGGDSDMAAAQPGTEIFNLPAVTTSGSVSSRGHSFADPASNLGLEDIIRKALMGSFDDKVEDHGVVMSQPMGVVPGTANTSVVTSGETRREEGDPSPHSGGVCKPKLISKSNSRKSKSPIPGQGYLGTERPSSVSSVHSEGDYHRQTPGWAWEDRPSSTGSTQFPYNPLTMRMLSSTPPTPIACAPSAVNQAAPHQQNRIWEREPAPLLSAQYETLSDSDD

[20] = molecular target: T2, Peroxisome proliferator-activated receptor gamma coactivator 1-alpha (Homo sapiens) (UniProt Q9UBK2); assay: Effect on PGC-1 alpha recruitment (unknown origin) incubated for 24 hrs at 10 uM by TR-FRET assay
T2 sequence (whole entry): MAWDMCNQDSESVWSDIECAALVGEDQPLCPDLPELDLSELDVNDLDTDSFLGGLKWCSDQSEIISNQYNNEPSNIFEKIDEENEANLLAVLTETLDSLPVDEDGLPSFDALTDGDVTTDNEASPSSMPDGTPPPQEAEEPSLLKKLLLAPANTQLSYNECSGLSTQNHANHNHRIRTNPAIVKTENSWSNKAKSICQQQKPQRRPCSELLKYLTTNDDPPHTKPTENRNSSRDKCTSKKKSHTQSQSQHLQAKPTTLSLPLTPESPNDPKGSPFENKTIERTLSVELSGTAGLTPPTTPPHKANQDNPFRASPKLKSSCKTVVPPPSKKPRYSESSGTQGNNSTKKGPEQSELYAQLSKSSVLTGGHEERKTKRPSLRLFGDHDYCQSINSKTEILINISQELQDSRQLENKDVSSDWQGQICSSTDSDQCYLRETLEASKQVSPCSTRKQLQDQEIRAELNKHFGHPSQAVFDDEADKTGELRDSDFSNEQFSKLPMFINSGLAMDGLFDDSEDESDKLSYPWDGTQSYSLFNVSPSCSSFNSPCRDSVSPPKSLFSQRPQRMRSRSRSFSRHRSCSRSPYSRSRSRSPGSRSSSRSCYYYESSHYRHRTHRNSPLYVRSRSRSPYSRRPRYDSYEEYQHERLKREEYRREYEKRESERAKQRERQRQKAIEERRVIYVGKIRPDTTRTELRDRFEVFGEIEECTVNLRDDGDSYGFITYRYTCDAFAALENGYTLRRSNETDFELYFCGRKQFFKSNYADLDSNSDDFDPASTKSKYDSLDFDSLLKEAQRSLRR

BMDM [21] = assay: Inhibition of osteoclastogenesis in C57BL/6J mouse Bone marrow macrophage cells assessed as inhibition of RANKL-stimulated osteoclast formation at 10 uM measured after 7 days by tartrate-resistant acid phosphatase (TRAP) staining assay; format: functional, cell-based; details: time 7.0 day
BMDM [22] = assay: Inhibition of osteoclastogenesis in C57BL/6J mouse Bone marrow macrophage cells assessed as inhibition of RANKL-stimulated osteoclast formation at 10 uM measured after 7 days in presence of rosiglitazone by tartrate-resistant acid phosphatase (TRAP) staining assay; format: functional, cell-based; details: time 7.0 day

CCC(C)C(=O)O[C@@H](C[C@@]1(C)[C@H](C)C[C@H](OC(C)=O)[C@]2(COC(C)=O)[C@@H]1CCC[C@]21CO1)C1=CC(=O)OC1 (stereo partly drawn) was tested, and the Activity (Mus musculus [1]) was “Active”, the Activity (Mus musculus [2]) was “Active” and the Activity (Mus musculus [3]) was “Active”. The Activity (Mus musculus [4]) was “Active”, the Activity (Mus musculus [5]) was “Active” and the IC50 (BMDM [6]) was 1.42 µM. For the same molecule, the Activity (Mus musculus [7]) was “Active”, the Activity (Mus musculus [8]) was “Active” and the Activity (Mus musculus [9]) was “Active”. The inhibition at 10 µM (BMDM [10]) was > 50%, the Activity (Mus musculus [11]) was “Active” and the Activity (Mus musculus [12]) was “Active”. For the same molecule, the IC50 [13] was 12.2 µM, the Activity (Mus musculus [14]) was “Active” and the Activity (BMDM [15]) was “Non-Toxic”. The Activity (Mus musculus [16]) was “Active”.
With CC(=O)OC[C@@]12[C@@H](OC(C)=O)C[C@@H](C)[C@](C)(CCC3=CC(=O)OC3)[C@H]1CCC[C@]21CO1 [AJUGARIN I] the IC50 (BMDM [6]) was 3.71 µM, the inhibition at 10 µM (BMDM [10]) was > 50% and the IC50 [13] was 12 µM. The Activity (BMDM [15]) was “Non-Toxic”.
For C/C=C(\C)C(=O)OC[C@@]12[C@H](CCC[C@]13CO3)[C@@](C)(C[C@H](O)C1=CC(=O)OC1)[C@H](C)C[C@@H]2O, the IC50 (BMDM [6]) was 3.23 µM, the inhibition at 10 µM (BMDM [10]) was > 50% and the IC50 [13] was 11.5 µM. The Activity (BMDM [15]) was “Non-Toxic”.
With C/C=C(\C)C(=O)OC[C@@]12[C@@H](OC(C)=O)C[C@@H](C)[C@](C)(CCC3=CC(=O)OC3)[C@H]1CCC[C@]21CO1 [AJUGACUMBIN A] the Kd [17] was 79.5 µM, the Kd [18] was 17.7 µM and the Activity [19] was “inactive”. For the same molecule, the IC50 (BMDM [6]) was 1.92 µM, the Activity [20] was “inactive” and the inhibition (BMDM [21]) was “Active”. The inhibition at 10 µM (BMDM [10]) was > 50%, the inhibition (BMDM [22]) was “Active” and the IC50 [13] was 8.35 µM. The Activity (BMDM [15]) was “Non-Toxic”.
For COC(=O)[C@@H]1CCC[C@@H]2[C@@](C)(C[C@H](OC(=O)C(C)C)C3=CC(=O)OC3)[C@H](C)C[C@H](O)[C@]21C, the IC50 (BMDM [6]) was 1.79 µM, the inhibition at 10 µM (BMDM [10]) was > 50% and the IC50 [13] was 12.5 µM. For the same molecule, the Activity (BMDM [15]) was “Non-Toxic”.
C/C=C(\C)C(=O)O[C@@H](C[C@@]1(C)[C@H](C)C[C@H](OC(C)=O)[C@]2(COC(C)=O)[C@@H]1CCC[C@]21CO1)C1=CC(=O)OC1 [AJUGANIPPONIN B] was tested, and the Kd [17] was 127 µM, the Kd [18] was 16 µM and the Activity [19] was “inactive”. The IC50 (BMDM [6]) was 0.97 µM, the Activity [20] was “inactive” and the inhibition (BMDM [21]) was “Active”. For the same molecule, the inhibition at 10 µM (BMDM [10]) was > 50%, the inhibition (BMDM [22]) was “Active” and the IC50 [13] was 6.99 µM. The Activity (BMDM [15]) was “Non-Toxic”.
